Test system: C. auris strain
Assay type: cell-based, Candida auris
Details: C. auris strain used in the anti-fungal test
Procedure: The biological activity of compound 1 (linoleic acid) as an antifungal agent against fluconazole- and caspofungin-resistant C. auris was evaluated using disk diffusion assay for determining the inhibition zone (mm) and two-fold serial microdilution assay for determining the minimal inhibitory concentration (MIC) (mg/mL) according to Dilika et al., (2000) and Zheng et al., (2005). The hexadecanoic acid and isopropyl myristate were prepared (both compounds (data not shown) were used in this stage as a negative control).

CC[C@H](C)C[C@H](C)CCCCCCCCC(=O)N[C@H]1C[C@@H](O)[C@@H](NCCN)NC(=O)[C@@H]2[C@@H](O)CCN2C(=O)[C@H]([C@H](O)CCN)NC(=O)[C@H]([C@H](O)[C@@H](O)c2ccc(O)cc2)NC(=O)[C@@H]2C[C@@H](O)CN2C(=O)[C@H]([C@@H](C)O)NC1=O [caspofungin]
susceptibility of C. auris strain to standard anti-fungal drug: resistant

OC(Cn1cncn1)(Cn1cncn1)c1ccc(F)cc1F [fluconazole]
susceptibility of C. auris strain to standard anti-fungal drug: resistant
